What was measured:
[1] = target: Dual specificity mitogen-activated protein kinase kinase 5 (Homo sapiens) (UniProt Q13163); test: Binding affinity to wild-type human partial length MEK5 (L98 to P448 residues) expressed in mammalian expression system assessed as residual binding level at 1 uM by Kinomescan method relative to control
[2] = target: Serine/threonine-protein kinase PRP4 homolog (Homo sapiens) (UniProt Q13523); test: Binding affinity to wild-type human partial length PRP4 (D657 to I1007 residues) expressed in bacterial expression system assessed as residual binding level at 1 uM by Kinomescan method relative to control
[3] = target: Homeodomain-interacting protein kinase 4 (Homo sapiens) (UniProt Q8NE63); test: Binding affinity to wild-type human partial length HIPK4 (M1 to V384 residues) expressed in bacterial expression system assessed as residual binding level at 1 uM by Kinomescan method relative to control
[4] = target: Cyclin-dependent kinase-like 3 (Homo sapiens) (UniProt Q8IVW4); test: Binding affinity to wild-type human partial length CDKL3 (M1 to D327 residues) expressed in bacterial expression system assessed as residual binding level at 1 uM by Kinomescan method relative to control
[5] = target: Serine/threonine-protein kinase 25 (Homo sapiens) (UniProt O00506); test: Binding affinity to wild-type human partial length YSK1 (V14 to H295 residues) expressed in bacterial expression system assessed as residual binding level at 1 uM by Kinomescan method relative to control
[6] = target: Phosphatidylinositol 4-phosphate 3-kinase C2 domain-containing subunit beta (Homo sapiens) (UniProt O00750); test: Binding affinity to wild-type human partial length PIK3C2B (M1 to L1634 residues) expressed in mammalian expression system assessed as residual binding level at 1 uM by Kinomescan method relative to control
[7] = target: MAP kinase-activated protein kinase 2 (Homo sapiens) (UniProt P49137); test: Binding affinity to wild-type human partial length MAPKAPK2 (V48 to D345 residues) expressed in bacterial expression system assessed as residual binding level at 1 uM by Kinomescan method relative to control
[8] = target: Interleukin-1 receptor-associated kinase 1 (Homo sapiens) (UniProt P51617); test: Binding affinity to wild-type human partial length IRAK1 (R194 to S712 residues) expressed in mammalian expression system assessed as residual binding level at 1 uM by Kinomescan method relative to control
Sequence of Interleukin-1 receptor-associated kinase 1 (Homo sapiens) (P51617 whole entry, looked up, the tested form may be a part): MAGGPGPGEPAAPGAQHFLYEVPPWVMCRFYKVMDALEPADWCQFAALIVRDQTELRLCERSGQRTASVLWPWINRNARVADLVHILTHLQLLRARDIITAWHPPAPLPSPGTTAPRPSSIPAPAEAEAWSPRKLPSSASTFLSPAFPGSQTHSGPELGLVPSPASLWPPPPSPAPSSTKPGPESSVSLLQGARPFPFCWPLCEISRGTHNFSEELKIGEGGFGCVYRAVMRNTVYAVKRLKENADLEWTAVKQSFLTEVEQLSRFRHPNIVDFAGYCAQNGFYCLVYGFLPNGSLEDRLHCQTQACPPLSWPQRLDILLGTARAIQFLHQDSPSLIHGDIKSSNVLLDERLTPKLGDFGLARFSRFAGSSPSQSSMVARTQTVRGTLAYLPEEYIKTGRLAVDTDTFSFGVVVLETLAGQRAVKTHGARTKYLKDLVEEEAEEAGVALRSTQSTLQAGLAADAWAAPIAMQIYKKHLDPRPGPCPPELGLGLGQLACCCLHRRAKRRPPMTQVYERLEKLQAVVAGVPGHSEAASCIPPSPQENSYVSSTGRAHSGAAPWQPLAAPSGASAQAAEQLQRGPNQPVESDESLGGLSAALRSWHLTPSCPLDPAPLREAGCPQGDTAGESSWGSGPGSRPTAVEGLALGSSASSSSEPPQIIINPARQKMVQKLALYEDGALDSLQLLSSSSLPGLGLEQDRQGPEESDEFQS

Sequence of Homeodomain-interacting protein kinase 4 (Homo sapiens) (Q8NE63 whole entry, the tested form may be a part): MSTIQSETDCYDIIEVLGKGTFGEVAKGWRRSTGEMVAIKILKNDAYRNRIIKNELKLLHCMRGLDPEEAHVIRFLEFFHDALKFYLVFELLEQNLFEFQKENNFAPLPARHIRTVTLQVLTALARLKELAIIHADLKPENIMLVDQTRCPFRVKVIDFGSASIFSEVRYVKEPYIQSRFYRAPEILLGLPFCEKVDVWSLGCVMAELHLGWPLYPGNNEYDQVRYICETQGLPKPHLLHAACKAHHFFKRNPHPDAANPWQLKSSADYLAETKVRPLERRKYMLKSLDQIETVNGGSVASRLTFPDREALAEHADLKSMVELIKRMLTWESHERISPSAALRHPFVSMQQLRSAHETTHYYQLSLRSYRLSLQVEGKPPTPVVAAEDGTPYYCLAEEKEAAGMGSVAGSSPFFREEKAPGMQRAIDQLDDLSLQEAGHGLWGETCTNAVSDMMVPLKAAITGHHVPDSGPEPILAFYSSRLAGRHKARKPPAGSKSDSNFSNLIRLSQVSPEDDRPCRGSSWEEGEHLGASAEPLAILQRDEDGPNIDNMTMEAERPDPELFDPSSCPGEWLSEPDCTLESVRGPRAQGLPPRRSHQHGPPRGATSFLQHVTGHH
Sequence of Phosphatidylinositol 4-phosphate 3-kinase C2 domain-containing subunit beta (Homo sapiens) (O00750 whole entry, the tested form may be a part): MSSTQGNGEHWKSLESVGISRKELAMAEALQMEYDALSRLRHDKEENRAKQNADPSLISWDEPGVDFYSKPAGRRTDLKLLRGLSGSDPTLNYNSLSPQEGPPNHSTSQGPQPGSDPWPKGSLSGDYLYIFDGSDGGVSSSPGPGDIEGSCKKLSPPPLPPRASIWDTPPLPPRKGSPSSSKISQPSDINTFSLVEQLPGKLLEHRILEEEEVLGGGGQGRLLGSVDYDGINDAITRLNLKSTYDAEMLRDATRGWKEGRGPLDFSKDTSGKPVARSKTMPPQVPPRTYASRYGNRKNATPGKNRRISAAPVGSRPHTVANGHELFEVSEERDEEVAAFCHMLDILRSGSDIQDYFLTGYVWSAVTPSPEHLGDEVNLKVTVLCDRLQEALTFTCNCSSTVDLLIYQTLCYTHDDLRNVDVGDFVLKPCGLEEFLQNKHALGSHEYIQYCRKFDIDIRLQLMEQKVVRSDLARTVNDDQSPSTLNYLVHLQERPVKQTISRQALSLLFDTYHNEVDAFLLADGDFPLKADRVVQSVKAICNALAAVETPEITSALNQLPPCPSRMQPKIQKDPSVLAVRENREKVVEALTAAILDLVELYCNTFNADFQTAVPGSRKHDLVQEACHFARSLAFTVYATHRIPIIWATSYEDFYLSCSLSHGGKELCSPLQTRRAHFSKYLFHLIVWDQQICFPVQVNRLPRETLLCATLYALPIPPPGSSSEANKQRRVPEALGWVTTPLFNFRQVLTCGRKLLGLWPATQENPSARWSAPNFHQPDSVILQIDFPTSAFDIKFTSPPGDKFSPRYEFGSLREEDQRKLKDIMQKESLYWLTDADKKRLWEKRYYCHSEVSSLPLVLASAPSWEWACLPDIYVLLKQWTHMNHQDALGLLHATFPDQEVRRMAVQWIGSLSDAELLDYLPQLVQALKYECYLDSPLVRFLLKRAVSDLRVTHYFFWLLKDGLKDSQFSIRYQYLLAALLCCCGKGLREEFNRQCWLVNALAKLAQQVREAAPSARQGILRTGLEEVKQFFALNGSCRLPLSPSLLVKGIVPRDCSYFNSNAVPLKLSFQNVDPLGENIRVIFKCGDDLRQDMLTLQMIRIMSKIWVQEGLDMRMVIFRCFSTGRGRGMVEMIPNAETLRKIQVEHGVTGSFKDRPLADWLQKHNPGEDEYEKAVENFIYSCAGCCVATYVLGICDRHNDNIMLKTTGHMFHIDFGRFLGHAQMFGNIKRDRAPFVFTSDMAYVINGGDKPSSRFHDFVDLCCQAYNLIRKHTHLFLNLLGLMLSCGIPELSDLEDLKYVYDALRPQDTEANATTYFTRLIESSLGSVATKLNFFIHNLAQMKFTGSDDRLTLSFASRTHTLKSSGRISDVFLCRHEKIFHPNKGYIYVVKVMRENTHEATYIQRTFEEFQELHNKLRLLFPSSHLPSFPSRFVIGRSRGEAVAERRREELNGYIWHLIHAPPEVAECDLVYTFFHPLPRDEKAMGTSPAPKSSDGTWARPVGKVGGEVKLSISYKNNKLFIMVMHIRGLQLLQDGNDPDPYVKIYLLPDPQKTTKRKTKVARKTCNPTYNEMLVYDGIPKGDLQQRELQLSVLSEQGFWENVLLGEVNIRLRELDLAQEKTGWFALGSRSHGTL
Sequence of Serine/threonine-protein kinase PRP4 homolog (Homo sapiens) (Q13523 whole entry, the tested form may be a part): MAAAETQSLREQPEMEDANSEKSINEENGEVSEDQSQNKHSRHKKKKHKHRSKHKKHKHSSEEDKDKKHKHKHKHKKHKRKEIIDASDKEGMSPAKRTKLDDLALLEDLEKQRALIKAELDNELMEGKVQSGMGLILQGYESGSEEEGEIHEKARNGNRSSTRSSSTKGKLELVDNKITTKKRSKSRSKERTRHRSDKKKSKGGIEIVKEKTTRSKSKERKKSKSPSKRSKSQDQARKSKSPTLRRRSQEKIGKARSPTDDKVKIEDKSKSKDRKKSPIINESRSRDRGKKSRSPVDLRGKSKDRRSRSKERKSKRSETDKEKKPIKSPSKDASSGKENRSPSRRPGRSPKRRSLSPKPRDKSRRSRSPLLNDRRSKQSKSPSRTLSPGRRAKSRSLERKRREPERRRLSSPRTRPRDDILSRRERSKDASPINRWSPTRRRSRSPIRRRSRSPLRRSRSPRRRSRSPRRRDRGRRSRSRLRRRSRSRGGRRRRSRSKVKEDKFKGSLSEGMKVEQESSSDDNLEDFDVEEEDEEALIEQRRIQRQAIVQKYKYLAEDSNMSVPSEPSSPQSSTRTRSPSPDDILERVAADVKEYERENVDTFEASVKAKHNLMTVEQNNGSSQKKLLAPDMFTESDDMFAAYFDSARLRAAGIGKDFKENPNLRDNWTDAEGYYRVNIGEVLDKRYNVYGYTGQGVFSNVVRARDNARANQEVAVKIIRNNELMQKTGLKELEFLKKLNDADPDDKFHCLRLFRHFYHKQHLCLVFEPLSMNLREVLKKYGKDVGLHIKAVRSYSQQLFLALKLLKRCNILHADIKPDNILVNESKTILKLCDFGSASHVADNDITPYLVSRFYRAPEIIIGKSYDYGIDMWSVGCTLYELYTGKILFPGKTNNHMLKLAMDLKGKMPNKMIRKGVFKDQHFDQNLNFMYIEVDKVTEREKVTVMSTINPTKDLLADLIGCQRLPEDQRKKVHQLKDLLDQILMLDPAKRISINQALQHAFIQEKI
Sequence of Cyclin-dependent kinase-like 3 (Homo sapiens) (Q8IVW4 whole entry, looked up, the tested form may be a part): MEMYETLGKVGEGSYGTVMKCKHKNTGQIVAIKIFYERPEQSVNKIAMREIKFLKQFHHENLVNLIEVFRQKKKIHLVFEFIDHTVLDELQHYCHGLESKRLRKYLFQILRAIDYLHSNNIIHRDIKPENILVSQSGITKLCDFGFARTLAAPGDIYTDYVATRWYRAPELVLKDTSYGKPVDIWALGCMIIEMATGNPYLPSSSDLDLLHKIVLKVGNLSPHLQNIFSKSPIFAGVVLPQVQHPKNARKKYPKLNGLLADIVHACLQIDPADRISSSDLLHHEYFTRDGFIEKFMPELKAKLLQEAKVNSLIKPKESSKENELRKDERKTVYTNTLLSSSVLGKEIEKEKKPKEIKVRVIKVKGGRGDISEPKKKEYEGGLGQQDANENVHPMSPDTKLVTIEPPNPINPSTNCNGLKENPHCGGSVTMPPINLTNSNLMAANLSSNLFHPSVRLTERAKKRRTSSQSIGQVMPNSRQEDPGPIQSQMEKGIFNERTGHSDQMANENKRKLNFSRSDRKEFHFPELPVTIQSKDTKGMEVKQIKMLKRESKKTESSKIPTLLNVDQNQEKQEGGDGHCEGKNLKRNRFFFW
Sequence of Serine/threonine-protein kinase 25 (Homo sapiens) (O00506 whole entry, looked up, the tested form may be a part): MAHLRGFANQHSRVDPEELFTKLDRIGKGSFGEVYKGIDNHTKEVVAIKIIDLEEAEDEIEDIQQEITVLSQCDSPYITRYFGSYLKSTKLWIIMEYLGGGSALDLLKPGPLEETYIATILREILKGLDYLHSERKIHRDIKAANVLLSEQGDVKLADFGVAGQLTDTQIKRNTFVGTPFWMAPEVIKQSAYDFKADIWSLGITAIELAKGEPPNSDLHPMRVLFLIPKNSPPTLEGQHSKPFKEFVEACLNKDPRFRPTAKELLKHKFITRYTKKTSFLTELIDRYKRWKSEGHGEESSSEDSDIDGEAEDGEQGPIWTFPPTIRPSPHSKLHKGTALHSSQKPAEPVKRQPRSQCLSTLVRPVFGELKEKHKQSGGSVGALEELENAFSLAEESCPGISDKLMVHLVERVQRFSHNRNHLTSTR

Compound `CC(C)Nc1sc(C(=O)c2ccc(Cl)s2)c(N)c1C#N` has an Activity [1] of 100%, an Activity [2] of 100% and an Activity [3] of 80%. It also gave an Activity [4] of 47%, an Activity [5] of 81% and an Activity [6] of 100%. The Activity [7] was 83% and the Activity [8] was 77%.

Reference: ChEMBL document CHEMBL4330132, “5-Keto-3-cyano-2,4-diaminothiophenes as selective maternal embryonic leucine zipper kinase inhibitors” (Bioorg Med Chem Lett, 2019)
